Series [1] in a line: method code SF-HPLC, from DOI: 10.1080/10826079708014133. The following applies: pH 11.0.

In series [1], `Cc1cccc(OCC2CN=C(N)O2)c1C` (configuration not stated) registered a log distribution coefficient (logD) of 2.25.

Take `Cc1cccc(OCC2CN=C(N)O2)c1` (configuration not stated): the pH-dependent lipophilicity (logD) in series [1] was found to be 1.75.

Turning to `CCC(C)(C)c1ccc(OCC2CN=C(N)O2)cc1` (configuration not stated), the lipophilicity (logP) was determined as 3.69.

As to `NC1=NCC(COc2ccccc2Cc2ccccc2)O1` (configuration not stated), the lipophilicity (logP) was determined as 3.05.

In series [1], `NC1=NCC(COc2cccc(Cl)c2)O1` (configuration not stated) gave a log distribution coefficient (logD) of 2.09.

`NC1=NCC(COc2ccc(-c3ccccc3)cc2)O1` (configuration not stated) yielded a logD in series [1] of 2.8.

In series [1], `Cc1ccc(C)c(OCC2CN=C(N)O2)c1` (configuration not stated) registered a pH-dependent lipophilicity (logD) of 2.29.

In the case of `Cc1ccc(OCC2CN=C(N)O2)cc1C` (configuration not stated), the logD in series [1] was found to be 2.1.

In series [1], `CCc1ccc(OCC2CN=C(N)O2)cc1` (configuration not stated) yielded a logD of 2.27.

`Cc1cccc(C)c1OCC1CN=C(N)O1` (configuration not stated) displayed a log distribution coefficient (logD) in series [1] of 2.

For the molecule `NC1=NCC(COc2cccc(C(F)(F)F)c2)O1` (configuration not stated), the pH-dependent lipophilicity (logD) in series [1] is 2.35.

`Cc1ccc(OCC2CN=C(N)O2)c(C)c1` (configuration not stated) displayed a pH-dependent lipophilicity (logD) in series [1] of 2.23.

Values taken from the SangsterLogP compilation.
